Source: patent US9505741B2, “Prolylhydroxylase inhibitors and methods of use” (CORNELL UNIVERSITY, priority 2010, dated 2016)

Tests used:
[1] = system: HIF ODD-luc reporter (HIF PHD-controlled stability); assay: HTS with cell-based HIF ODD-luciferase reporter (SH-SY5Y-ODD-luc cells); set-up: species or system human; conditions: three hours; for activation at 10 µM: Homo sapiens, 3 h, read-out: reporter activation (%) relative to ciclopirox (100%) and DMSO (0%)
Excerpt: For HTS, a cell-based reporter system was employed. The cell-based reporter system was generated by fusing HIF-1a oxygen degradable domain (ODD) to luciferase (Safran M. et al., PNAS, 2006, 103, 105-110), which represents a cell-based capture assay monitored by the consumption of the luciferase-labeled HIF substrate under the conditions more physiological than in vitro test tubes. In accord with their structure activity relationship in reporter assay, the best “hits” stabilize HIF1, upregulate known HIF target genes in a human neuronal line, and exert neuroprotective effects in established model of oxidative stress in cortical neurons.
The reporter cell lines constitutively expressing ODD-luc (human neuroblastoma, SH-SY5Y) were stable for more than one year without significant change in their response to canonical PHD inhibitors such as DFO, dihydroxybenzoate (DHB), dimethyloxalylglycine (DMOG), and ciclopirox (FIG. 1B). In order to verify the specificity of luciferase changes as an assay for PHD activity, several control lines were developed: the control line expressing ODD-luc with proline 564 and 567 mutated to Ala generates luciferase fusion that cannot be degraded and experimentally identifies a ceiling level of ODD-luc protein attainable in these cells. The background signal for the wild-type HIF ODD-luc line (PYIP) corresponds to approximately 5-6% of the ODD-luc levels in the control line AYIA (double mutant P564A/P567A line) (FIG. 2). Treatment with 10 μM ciclopirox results in a 10-fold increase of a background signal for the wild-type ODD-luc reporter (PYIP line), i.e. reaches almost 50% of the threshold value (FIG. 2).
The assay was optimized for HTS format to provide Z values above 0.7. SH-SY5Y-ODD-luc cells were plated into 384—well white flat-bottom plates at 7,000 cell/well in 30 μl of serum and incubated overnight at 37° C., 5% CO2. The next day, compounds were added to a final concentration of 10 μM, plates were incubated for three hours at 37° C., and luciferase activity was measured using SteadyGlo™ reagent (Promega). Each plate had two internal standards, ciclopirox (100%), and DMSO (0%). The reporter activation (%) was calculated as a ratio (L−LDMSO)/(Lciclopirox−LDMSO). Hits were defined as those >25%. HTS of 85,000 compounds was performed at Rockefeller HTS Resource Center. 295 hits from the initial screen have been tested in quadruplicate, 160 were confirmed. Classification into 10 structural clusters has been done manually; 25 hits were singletons.

[2] = system: HIF ODD-luc reporter (HIF PHD-controlled stability); assay: ODD-luc reporter, concentration titration and kinetics of reporter activation (extended SAR); assay type: cell-based, human; conditions: for Ki: linear plot 1/(K0−v) vs inhibitor concentration, read-out: apparent inhibition constant from time course of reporter activation
Excerpt: The HIF ODD-luciferase reporter system is controlled by the rate of PHD catalyzed reaction, and from an enzyme kinetics point of view, it is a “capture assay” monitored by the consumption of a substrate, the heterologously expressed HIF ODDluciferase fusion protein. In the kinetic regime, i.e. monitoring the time-course of luminescence changes (FIG. 3A), the ODD-luc reporter system permits quantitative characterization of promoter capacity (Ko, rate of fusion protein generation), enzyme activity, and inhibition constant determination.
The rate of fusion accumulation equals the rate of its production (Ko) minus the rate of the rate-limiting step, controlled by HIF PHDs, which obeys Michaelis-Menten kinetics, as follows: v=d[ODDluc]/dt=K0−k1[PHD][ODDluc]/{Km(1+[I]/K1)+[ODDluc]} (Eq.1)
The background luminescence signal calibrated with recombinant luciferase allows an estimation of the steady-state concentration of the ODD-luc fusion protein. Under the conditions used the steady-state value of 60 rlu (relative light units) corresponds to 1 pg luciferase protein; dividing this number by the total cell volume taken as a single cell volume (233μ^3) multiplied by 30,000 cells/well density (number of cells in a 96 well dish), the ODD-luc fusion protein steady-state concentration is found to be equal to 2.3 nM, which is well below all reported Km values for HIF1 (Dao, J. H., et al., Anal Biochem 384, 213-223 2009; Hewitson, K. S., et al., Methods Enzymol 435, 25-42 2007; Koivunen, P., et al., J Biol Chem 281, 28712-28720 2006; Tuckerman, J. R., et al., FEBS Lett 576, 145-150 2004. Therefore, it is preferable to work under nonsaturating conditions with respect to HIF substrate, i.e. optimal conditions for selecting inhibitors competitive against HIF substrate. Moreover, as compared to the in vitro assay, which uses a 19 amino acid peptide fragment surrounding the oxygen dependent domain (ODD), the instant ODD-luciferase construct contains 123 amino acid acids, and thus, more closely emulates the behavior of native HIF. The initial concentration of fusion can be considered much lower than Km, and thus, can be ignored in the rate equation: v=d[ODDluc]/dt=K0−k1[PHD][ODDluc]/Km(1+[I]/K1) (Eq.2)
Knowing the capacity of the promoter, the inhibition constant can be determined, but not the inhibition type, from the initial rates of signal accumulation at varied fixed concentrations of potential inhibitor. The capacity of promoter, K0 can be determined under the conditions of total inhibition of PHD activity by means of complete iron deprivation achieved in the presence of high concentrations of ciclopirox, i.e. when the increase in the ciclopirox concentrations give no further increase in the rate of luciferase signal growth (FIG. 3B). […]

[3] = Iron binding by calcein displacement from its iron complex; assay type: physicochemical
Protocol: The iron chelation ability is determined by displacement of calcein from its complex with iron monitored by fluorescence (excitation 490 nm, emission 523 nm, cut-off 515 nm) on a Spectramax M5e platereader (Molecular Devices). The apparent binding constant for calcein (ca.50 nM) was determined from Fe titration curve for 1 μM calcein in 5 mM Tris-HCl buffer, pH 7.5. The ratio between the iron binding constant for calcein and a particular compound, i.e., KQ/KCa, was estimated by fitting the titration curve into the dependence of [Fe]o vs. Y, where Y═[Ca—Fe]/[Ca] is a ratio of calcein-bound Fe to free (fluorescent) calcein: [Fe]o=KCaY+[Ca]oY/(Y+1)+[Q]oY/(Y+KQ/KCa) (Eq.4)
The association rate constant was determined as the second order rate constant for calcein displacement from its complex with iron (1 μM:1 μM) upon addition of an oxyquinoline (5-20 μM) calculated from the slope of a linear plot of the initial rate of calcein release vs. the concentration of oxyquinoline added. All experiments were performed in triplicates or more. All values are presented as mean±S.E.M.

Compound	reporter activation in HTS, in words ([1]; 10 μM)	activation at 10 µM ([1]; SH-SY5Y-ODD-luc)	other results
CCC(C)C(N)C(=O)Nc1nnc(-c2ccc(Br)cc2)s1 (stereo not drawn) [2-amino-N-(5-(4-bromophenyl)-[1,3,4]thiadiazol-2-yl)-3-methylpentanamide]	no reporter activation at all	–	–
COc1ccc(-c2nnc(NC(=O)C(N)Cc3ccccc3)s2)cc1 (stereo not drawn) [2-amino-N-(5-(4-methoxy-phenyl)-[1,3,4]thiadiazol-2-yl)-3-phenylpropanamide]	no reporter activation at all	–	–
O=C(C=C(O)c1ccccc1)c1ccccc1O [2′β-dihydroxychalcone]	–	–	fold reporter activation over background ([1]; 10 μM, SH-SY5Y-ODD-luc): 7.5 fold; reporter activation (%) relative to ciclopirox (100%) and DMSO (0%) ([1]; 10 μM, SH-SY5Y-ODD-luc): 71%
Oc1cccc(CN2CCCn3cccc3C2c2ccc(F)cc2)c1O (stereo not drawn) [3-((1-(4-fluorophenyl)-4,5-dihydro-1H-pyrrolo[1,2-a][1,4]diazepin-2(3H)-yl)methyl)benzene-1,2-diol]	–	40%	–
Oc1cccc(CN2CCN(CCOC(c3ccccc3)c3ccc(F)c(F)c3)CC2)c1O (stereo not drawn) [3-((4-(2-((3,4-difluorophenyl) (phenyl)methoxy)ethyl)piperazin-1-yl)methyl)benzene-1,2-diol]	–	60%	–
FC(F)(F)c1ccccc1-n1c(S)nnc1-c1nccc2ccccc12 [5-isoquinolin-1-yl-4-(2-trifluoromethyl-phenyl)-4H-[1,2,4]triazole-3-thiol]	close to that for the internal standard	–	–
O=C1/C(=N\Nc2nc3ccccc3s2)C(c2ccccc2)=NN1c1ccccc1 [(Z)-4-(benzo[d]thiazol-2-ylhydrazono)-1,3-diphenyl-1H-pyrazol-5(4H)-one]	–	70%	–
N[C@H](Cc1ccc(O)c(O)c1)C(=O)O [D-dopa, reference compound]	not	–	–
CCOC(=O)c1ccc(O)c(O)c1 [DHB, Ethyl-3,4-dihydroxybenzoate]	–	–	concentration at which the reporter is activated ([2]; FIG. 1B): > 50 µM; Ki [2]: 520 µM
COC(=O)CNC(=O)C(=O)OC [DMOG, dimethyloxalylglycine]	–	–	Ki [2]: 1300 µM
O=C1/C(=N\Nc2nccs2)C(c2ccccc2)=NN1c1ccccc1 [I, (Z)-1,3-diphenyl-4-(thiazol-2-yl-hydrazono)-1H-pyrazol-5(4H)-one]	–	86%	–
NNc1nc(-c2ccccc2)cc(-c2ccccc2)n1 [II, 2-hydrazinyl-4,6-diphenylpyrimidine]	–	64%	iron binding / chelation ability in solution, in words [3]: no iron chelation properties in solution; fold reporter activation over background ([1]; 10 μM, SH-SY5Y-ODD-luc): 6.7 fold
S=C(Nc1ccccc1)Nc1nccs1 [III, 1-phenyl-3-(1,3-thiazol-2-yl)thiourea]	–	41%	fold reporter activation over background ([1]; 10 μM, SH-SY5Y-ODD-luc): five-fold
O=C(Nc1nnc(-c2cccc(Br)c2)s1)C1CCCN1 (stereo not drawn) [IV, N-[5-(3-bromophenyl)-[1,3,4]thiadiazol-2-yl]pyrrolidine-2-carboxamide]	–	35%	–
N[C@@H](Cc1ccc(O)c(O)c1)C(=O)O [L-Dopa, reference compound]	–	21%	fold reporter activation over background ([1]; 10 μM, SH-SY5Y-ODD-luc): 3 fold; IC50 ([2]; Homo sapiens, ODD-luc reporter): 15 µM
CC(C)n1c(S)nnc1-c1nccc2ccccc12 [V, 4-isopropyl-5-isoquinolin-1-yl-4H-[1,2,4]triazole-3-thiol]	close to that for the internal standard	90%	–
O=C1/C(=C\c2ccc(O)c(O)c2)SC(=S)N1c1ccccc1 [VI, (E)-5-(3,4-dihydroxybenzylidene)-3-phenyl-2-thioxothiazolidin-4-one]	–	38%	–
Oc1c(Br)cc(Br)c2cccnc12 [broxyquinoline, reference compound]	comparable	–	–
C[C@@](Cc1ccc(O)c(O)c1)(NN)C(=O)O [carbidopa, reference compound]	not	–	–
O=C(CCl)c1ccc(O)c2ncccc12 [chloroacetoquinoline]	comparable to 8-hydroxyquinoline itself	–	–
Oc1c(Cl)cc(Cl)c2cccnc12 [chloroxine, reference compound]	comparable	–	–
Cc1cc(C2CCCCC2)n(O)c(=O)c1 [ciclopirox, reference compound]	–	–	fold reporter activation over background ([1]; 10 μM, SH-SY5Y-ODD-luc): 10 fold
Oc1c(I)cc(Cl)c2cccnc12 [clioquinol, reference compound]	comparable	–	–
NCCc1ccc(O)c(O)c1 [dopamine, reference compound]	not	–	–
CC1=NN(c2ccccc2)C(=O)C1 [edaravone, reference compound]	no reporter activation	–	–
